Measured values taken from ChEMBL document CHEMBL5649166, “RIP3 induces apoptosis independent of pronecrotic kinase activity” (Mol Cell, 2014).

Legend:
[1] = target: T1, Dual specificity protein kinase TTK (Homo sapiens) (UniProt P33981); experiment: Inhibition of human TTK using at 1 uM in presence of 32P-ATP by Hotspot assay relative to control; values are per cent of control
T1 sequence (whole entry): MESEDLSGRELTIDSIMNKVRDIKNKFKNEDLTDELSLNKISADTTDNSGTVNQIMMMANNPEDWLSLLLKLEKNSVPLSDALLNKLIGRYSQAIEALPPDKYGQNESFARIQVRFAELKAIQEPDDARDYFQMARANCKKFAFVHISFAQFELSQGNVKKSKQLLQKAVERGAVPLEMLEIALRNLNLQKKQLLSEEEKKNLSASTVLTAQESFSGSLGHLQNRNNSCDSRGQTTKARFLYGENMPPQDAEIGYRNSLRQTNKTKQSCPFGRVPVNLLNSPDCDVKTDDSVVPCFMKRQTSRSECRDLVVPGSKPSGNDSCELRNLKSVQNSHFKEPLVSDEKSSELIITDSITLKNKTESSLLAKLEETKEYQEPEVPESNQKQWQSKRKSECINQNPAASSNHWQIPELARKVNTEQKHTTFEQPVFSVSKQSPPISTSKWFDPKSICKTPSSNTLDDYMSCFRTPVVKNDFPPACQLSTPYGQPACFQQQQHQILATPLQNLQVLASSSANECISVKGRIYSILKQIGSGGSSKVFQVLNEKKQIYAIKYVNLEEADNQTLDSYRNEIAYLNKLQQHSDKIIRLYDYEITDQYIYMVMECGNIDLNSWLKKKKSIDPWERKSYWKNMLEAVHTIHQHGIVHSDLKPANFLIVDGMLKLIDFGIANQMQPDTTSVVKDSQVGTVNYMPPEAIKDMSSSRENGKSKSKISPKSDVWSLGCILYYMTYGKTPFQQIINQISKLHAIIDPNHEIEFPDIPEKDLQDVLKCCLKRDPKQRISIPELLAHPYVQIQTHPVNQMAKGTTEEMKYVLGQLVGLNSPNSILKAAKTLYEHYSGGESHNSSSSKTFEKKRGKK

[2] = target: Serine/threonine-protein kinase 33 (Homo sapiens) (UniProt Q9BYT3); experiment: Inhibition of human STK33 using myelin basic protein as substrate at 1 uM in presence of 32P-ATP by Hotspot assay relative to control; values are per cent of control
Chain of Serine/threonine-protein kinase 33 (Homo sapiens) (Q9BYT3 whole entry, looked up): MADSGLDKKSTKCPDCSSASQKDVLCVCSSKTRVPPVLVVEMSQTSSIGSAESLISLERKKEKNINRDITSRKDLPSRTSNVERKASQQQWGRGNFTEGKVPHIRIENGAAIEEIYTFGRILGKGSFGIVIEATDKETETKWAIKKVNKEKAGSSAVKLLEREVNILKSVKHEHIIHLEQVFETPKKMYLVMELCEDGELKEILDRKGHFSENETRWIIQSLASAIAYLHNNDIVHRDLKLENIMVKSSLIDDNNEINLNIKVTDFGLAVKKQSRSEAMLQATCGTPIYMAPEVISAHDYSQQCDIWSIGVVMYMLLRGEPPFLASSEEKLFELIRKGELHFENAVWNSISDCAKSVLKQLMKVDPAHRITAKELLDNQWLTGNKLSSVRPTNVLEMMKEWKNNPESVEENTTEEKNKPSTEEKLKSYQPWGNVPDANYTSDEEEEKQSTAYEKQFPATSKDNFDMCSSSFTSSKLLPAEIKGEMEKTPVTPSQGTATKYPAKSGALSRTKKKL

[3] = target: Serine/threonine-protein kinase B-raf (Homo sapiens) (UniProt P15056); experiment: Inhibition of human BRAF using MEK1 (K97R) as substrate at 1 uM in presence of 32P-ATP by Hotspot assay relative to control; values are per cent of control
Chain of Serine/threonine-protein kinase B-raf (Homo sapiens) (P15056 whole entry): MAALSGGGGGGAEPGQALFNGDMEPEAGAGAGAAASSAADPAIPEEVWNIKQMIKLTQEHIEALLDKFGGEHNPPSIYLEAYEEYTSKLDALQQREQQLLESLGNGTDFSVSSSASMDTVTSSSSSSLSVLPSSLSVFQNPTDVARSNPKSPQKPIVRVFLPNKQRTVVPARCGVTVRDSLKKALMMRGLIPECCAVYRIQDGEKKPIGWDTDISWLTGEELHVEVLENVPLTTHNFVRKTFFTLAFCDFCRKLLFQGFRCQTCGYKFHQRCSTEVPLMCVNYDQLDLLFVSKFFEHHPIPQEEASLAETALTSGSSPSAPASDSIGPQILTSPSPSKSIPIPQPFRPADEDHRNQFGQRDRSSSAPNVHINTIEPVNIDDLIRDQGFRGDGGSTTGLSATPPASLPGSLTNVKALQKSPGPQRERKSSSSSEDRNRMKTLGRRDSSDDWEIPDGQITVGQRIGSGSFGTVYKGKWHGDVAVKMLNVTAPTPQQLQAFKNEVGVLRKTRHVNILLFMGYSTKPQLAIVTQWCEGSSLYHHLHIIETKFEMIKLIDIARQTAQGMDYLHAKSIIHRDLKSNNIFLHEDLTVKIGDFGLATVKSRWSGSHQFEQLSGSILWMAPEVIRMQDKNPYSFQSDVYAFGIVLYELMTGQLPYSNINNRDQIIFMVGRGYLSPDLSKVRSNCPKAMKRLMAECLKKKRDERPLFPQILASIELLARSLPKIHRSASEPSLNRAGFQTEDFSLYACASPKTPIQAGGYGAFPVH

[4] = target: T2, TGF-beta receptor type-1 (Homo sapiens) (UniProt P36897); experiment: Inhibition of human ALK5/TGFBR1 using casein as substrate at 1 uM in presence of 32P-ATP by Hotspot assay relative to control; values are per cent of control
T2 sequence (whole entry): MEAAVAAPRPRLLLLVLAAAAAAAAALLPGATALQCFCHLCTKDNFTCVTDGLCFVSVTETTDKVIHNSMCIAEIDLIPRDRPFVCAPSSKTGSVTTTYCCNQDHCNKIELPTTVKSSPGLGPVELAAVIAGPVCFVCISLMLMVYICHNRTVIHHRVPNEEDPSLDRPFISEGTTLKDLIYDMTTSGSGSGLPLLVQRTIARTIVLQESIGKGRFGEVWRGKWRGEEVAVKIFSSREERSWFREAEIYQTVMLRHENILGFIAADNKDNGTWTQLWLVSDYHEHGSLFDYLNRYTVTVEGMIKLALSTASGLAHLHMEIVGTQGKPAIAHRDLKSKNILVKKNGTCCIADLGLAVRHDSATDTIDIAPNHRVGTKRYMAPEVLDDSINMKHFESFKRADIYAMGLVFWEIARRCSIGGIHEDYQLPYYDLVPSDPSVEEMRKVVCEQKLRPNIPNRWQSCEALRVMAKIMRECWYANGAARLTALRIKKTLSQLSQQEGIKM

[5] = target: Tyrosine-protein kinase BTK (Homo sapiens) (UniProt Q06187); experiment: Inhibition of human BTK using poly[Glu:Tyr] (4:1) as substrate at 1 uM in presence of 32P-ATP by Hotspot assay relative to control; values are per cent of control
Chain of Tyrosine-protein kinase BTK (Homo sapiens) (Q06187 whole entry): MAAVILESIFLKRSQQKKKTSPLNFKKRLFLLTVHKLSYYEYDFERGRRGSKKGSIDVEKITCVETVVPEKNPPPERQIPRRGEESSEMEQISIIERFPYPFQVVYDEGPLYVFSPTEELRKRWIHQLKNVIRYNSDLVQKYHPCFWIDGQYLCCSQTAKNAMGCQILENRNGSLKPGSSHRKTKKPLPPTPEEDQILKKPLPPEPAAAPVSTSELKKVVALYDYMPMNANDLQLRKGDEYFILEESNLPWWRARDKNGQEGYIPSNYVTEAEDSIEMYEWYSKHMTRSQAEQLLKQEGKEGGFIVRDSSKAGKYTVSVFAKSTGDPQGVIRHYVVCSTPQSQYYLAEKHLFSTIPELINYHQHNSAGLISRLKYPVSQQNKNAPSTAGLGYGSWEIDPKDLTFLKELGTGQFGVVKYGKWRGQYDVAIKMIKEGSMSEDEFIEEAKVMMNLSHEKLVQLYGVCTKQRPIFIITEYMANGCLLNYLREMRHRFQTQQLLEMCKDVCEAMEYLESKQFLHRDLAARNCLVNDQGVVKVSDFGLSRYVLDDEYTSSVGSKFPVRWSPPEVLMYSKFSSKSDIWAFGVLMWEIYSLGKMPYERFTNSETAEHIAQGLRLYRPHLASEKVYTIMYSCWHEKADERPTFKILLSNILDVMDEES

[6] = target: T3, NUAK family SNF1-like kinase 1 (Homo sapiens) (UniProt O60285); experiment: Inhibition of human ARK5/NUAK1 using KKKVSRSGLYRSPSMPENLNRPR as substrate at 1 uM in presence of 32P-ATP by Hotspot assay relative to control; values are per cent of control
T3 sequence (whole entry): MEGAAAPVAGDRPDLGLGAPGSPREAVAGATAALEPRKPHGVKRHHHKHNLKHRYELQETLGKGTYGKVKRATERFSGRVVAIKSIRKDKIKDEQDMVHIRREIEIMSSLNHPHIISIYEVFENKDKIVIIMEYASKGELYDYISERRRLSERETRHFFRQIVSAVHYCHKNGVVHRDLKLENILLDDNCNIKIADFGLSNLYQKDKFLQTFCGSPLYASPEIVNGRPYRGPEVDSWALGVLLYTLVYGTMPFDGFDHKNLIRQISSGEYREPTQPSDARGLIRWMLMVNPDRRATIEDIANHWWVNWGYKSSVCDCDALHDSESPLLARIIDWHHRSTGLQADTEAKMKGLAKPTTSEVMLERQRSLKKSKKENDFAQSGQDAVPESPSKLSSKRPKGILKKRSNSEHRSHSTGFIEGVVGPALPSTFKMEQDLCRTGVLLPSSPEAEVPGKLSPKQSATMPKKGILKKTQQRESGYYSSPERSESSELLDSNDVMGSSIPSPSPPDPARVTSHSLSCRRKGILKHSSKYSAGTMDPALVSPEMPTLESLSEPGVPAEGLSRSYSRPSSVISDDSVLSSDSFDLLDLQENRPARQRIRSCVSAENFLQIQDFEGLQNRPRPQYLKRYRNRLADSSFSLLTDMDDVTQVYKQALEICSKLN

[7] = target: Fibroblast growth factor receptor 2 (Homo sapiens) (UniProt P21802); experiment: Inhibition of human FGFR2 using poly[Glu:Tyr] (4:1) as substrate at 1 uM in presence of 32P-ATP by Hotspot assay relative to control; values are per cent of control
Chain of Fibroblast growth factor receptor 2 (Homo sapiens) (P21802 22-821 limits assumed): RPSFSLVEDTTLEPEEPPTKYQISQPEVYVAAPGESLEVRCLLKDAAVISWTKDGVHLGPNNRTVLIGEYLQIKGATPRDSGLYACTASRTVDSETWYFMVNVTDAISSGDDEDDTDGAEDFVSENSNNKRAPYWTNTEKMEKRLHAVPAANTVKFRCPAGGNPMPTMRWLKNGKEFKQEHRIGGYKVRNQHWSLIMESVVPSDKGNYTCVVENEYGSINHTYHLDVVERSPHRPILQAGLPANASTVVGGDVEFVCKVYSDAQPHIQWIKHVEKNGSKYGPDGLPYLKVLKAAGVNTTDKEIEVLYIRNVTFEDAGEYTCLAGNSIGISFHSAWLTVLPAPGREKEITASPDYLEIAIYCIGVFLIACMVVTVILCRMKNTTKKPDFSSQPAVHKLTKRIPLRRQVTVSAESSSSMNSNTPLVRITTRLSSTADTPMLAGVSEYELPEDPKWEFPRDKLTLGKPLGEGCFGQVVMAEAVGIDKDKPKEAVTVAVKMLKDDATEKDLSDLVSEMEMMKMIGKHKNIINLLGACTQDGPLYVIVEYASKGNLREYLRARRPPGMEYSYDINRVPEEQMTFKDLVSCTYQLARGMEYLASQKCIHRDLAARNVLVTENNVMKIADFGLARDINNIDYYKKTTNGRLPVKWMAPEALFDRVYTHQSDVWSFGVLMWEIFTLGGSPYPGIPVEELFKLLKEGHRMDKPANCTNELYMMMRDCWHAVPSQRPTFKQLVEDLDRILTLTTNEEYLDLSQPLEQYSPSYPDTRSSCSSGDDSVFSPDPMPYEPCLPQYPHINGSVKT

[8] = target: G protein-coupled receptor kinase 5 (Homo sapiens) (UniProt P34947); experiment: Residual activity of human GRK5 using casein as substrate at 1 uM in presence of 32P-ATP by Hotspot assay relative to control
Chain of G protein-coupled receptor kinase 5 (Homo sapiens) (P34947 whole entry, looked up): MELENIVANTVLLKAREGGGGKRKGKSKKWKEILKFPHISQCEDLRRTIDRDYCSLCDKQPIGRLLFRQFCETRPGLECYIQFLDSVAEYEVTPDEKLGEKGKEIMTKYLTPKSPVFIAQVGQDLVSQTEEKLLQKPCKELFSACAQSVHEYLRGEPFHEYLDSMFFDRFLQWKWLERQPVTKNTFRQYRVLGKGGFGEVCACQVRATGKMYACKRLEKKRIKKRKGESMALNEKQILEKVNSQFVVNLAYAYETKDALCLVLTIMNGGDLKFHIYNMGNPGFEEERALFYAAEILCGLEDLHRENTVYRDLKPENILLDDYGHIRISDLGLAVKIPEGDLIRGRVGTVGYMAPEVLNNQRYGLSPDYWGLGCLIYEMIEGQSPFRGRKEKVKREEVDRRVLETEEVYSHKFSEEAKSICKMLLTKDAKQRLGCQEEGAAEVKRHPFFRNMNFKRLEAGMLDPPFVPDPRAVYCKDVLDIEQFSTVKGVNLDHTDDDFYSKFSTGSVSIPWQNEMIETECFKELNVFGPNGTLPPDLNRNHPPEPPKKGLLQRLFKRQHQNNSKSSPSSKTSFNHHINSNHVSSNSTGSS

[9] = target: Mitogen-activated protein kinase kinase kinase kinase 5 (Homo sapiens) (UniProt Q9Y4K4); experiment: Inhibition of human KHS/MAP4K5 using myelin basic protein as substrate at 1 uM in presence of 32P-ATP by Hotspot assay relative to control; values are per cent of control
Chain of Mitogen-activated protein kinase kinase kinase kinase 5 (Homo sapiens) (Q9Y4K4 whole entry, looked up): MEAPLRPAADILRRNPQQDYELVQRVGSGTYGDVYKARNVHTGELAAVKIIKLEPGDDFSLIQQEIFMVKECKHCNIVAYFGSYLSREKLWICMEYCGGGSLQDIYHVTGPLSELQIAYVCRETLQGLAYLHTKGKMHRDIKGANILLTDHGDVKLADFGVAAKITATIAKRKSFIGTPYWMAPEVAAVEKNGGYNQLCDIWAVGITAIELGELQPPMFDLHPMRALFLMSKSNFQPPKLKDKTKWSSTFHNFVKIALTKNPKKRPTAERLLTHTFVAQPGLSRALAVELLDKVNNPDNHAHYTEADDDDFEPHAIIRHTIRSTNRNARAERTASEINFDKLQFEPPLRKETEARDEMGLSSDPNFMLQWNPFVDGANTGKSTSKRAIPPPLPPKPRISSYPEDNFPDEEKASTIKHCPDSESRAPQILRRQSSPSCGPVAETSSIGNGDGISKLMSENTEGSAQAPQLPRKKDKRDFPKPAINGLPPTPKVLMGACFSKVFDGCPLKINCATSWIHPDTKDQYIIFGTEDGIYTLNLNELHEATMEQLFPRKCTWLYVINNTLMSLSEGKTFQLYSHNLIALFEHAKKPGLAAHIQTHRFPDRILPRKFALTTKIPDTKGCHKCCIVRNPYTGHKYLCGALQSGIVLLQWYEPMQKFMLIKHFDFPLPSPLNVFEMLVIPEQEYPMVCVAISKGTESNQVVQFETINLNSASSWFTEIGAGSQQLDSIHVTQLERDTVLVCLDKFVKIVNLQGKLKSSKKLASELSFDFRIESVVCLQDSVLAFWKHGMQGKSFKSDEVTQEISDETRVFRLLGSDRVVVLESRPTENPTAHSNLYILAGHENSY

Row | Compound | residual activity [1] [%] | residual activity [2] [%] | residual activity [3] [%] | residual activity [4] [%] | residual activity [5] [%] | residual activity [6] [%] | residual activity [7] [%] | residual activity [8] [%] | residual activity [9] [%]
1 | CNC(=O)c1ccc2c(c1)ncn2-c1ccc(CC(=O)OC(C)(C)C)cc1 | 91 | 102 | 96.1 | 94.9 | 79.8 | 91.7 | 66.7 | 94.7 | 89
2 | Cc1cc(-c2cnc(N)c3c(-c4ccc5scnc5c4)csc23)n(C)n1 | 101 | 99 | 79.6 | 97.8 | 58 | 98.5 | 61.7 | 96.5 | 64.3
3 | CC(C)S(=O)(=O)c1ccc2nccc(Nc3ccc4scnc4c3)c2c1 | 100 | 103 | 90.2 | 101 | 30.4 | 98.4 | 73.7 | 97.4 | 109
